Source: US8946201B2, “Methods for inhibiting TGF-β” (Saint Louis University, priority 2007, dated 2015)

Columns and labels:
PAI-1 expression = experiment: TGF-β1-induced PAI-1 expression, Northern blot, Mv1Lu cells; assay type: cell-based, mink; settings: for enhancement of PAI-1 expression: 1 μM, 16 hr
Description: (A, B, C, D, E, F) Cells were treated with 50 μg/ml cholesterol (A, B, C, D) and 50 μg/ml LDL (D) at 37° C. for 1 hr or with 1 μM fluvastatin or lovastatin (E) or several concentrations of fluvastatin (F) at 37° C. for 16 hr and then further incubated with increasing concentrations (as indicated) of TGF-β1 (A, B, C, E) or 50 pM TGF-β1 (D,F) for 2 hr. Northern blot analysis of PAI-1 and G3PDH was performed. A representative of a total of three analyses is shown (a). The relative intensities of the transcripts were quantified with a PhosphoImager. The ratio of the relative intensities of PAI-1 and G3PDH transcripts in cells treated without TGF-β1 and cholesterol, LDL or statins on the blot was taken as 1 fold or 100% of PAI-1 expression. The quantitative data from three independent analyses is shown (b). […] (G) Mv1Lu cells stably expressing a luciferase reporter gene driven by the PAI-1 promoter (MLECs-clone 32) were treated with increasing concentrations (as indicated) of cholesterol at 37 EC for 1 hr (a) or with 1 μM lovastatin at 37° C. for 16 hr (b) and then further incubated with 50 pM TGF-β for 7 hr. The luciferase activity in cells treated without cholesterol was taken as 100% (a). […] (H) Cells were incubated with 0.0625 and 0.125 pM TGF-β1 in the presence of increasing concentrations of cholesterol, as indicated. […] The experiments were carried out in triplicate.

TβR-I and TβR-II = experiment: 125I-TGF-β1 affinity labeling, Mv1Lu cells; assay type: cell-based, mink
Description: (A) Mv1Lu cells were treated with 50 μg/ml cholesterol at 37° C. After several time periods, as indicated, ^125I-TGF-β1-affinity labeling was performed at 0° C. ^125I-TGF-β1 affinity-labeled TGF-β receptors were analyzed by 7.5% SDS-PAGE and autoradiography (a) and quantified with a PhosphoImager. The bracket indicates the locations of ^125I-TGF-β1 affinity-labeled TβR-I and TβR-II. The ratio of ^125I-TGF-β1 binding to TβR-II and TβR-I is plotted against incubation time (b).
(B, C, D, E) Cells were treated with increasing concentrations of cholesterol in the presence (C) and absence (B, D, E) of 0.2% β-CD, as indicated. After 1 hr at 37° C., ^125I-TGF-β1 affinity labeling of TβR-I and TβR-II in cells was performed at 0° C. ^125I-TGF-β1 affinity-labeled TβR-I and TβR-II were analyzed by 7.5% SDS-PAGE and autoradiography or quantified with a PhosphoImager. A representative of a total of three analyses is shown (top). The bracket indicates the locations of ^125I-TGF-β affinity-labeled TβR-I and TβR-II. The relative intensities of ^125I-TGF-β1 affinity-labeled TβR-I and TβR-II in cells treated without cholesterol were taken as 100%. The quantitative data from three analyses is shown (bottom).
The bracket indicates the locations of ^125I-TGF-β1 affinity-labeled TβR-I and TβR-II. The relative intensities of ^125I-TGF-β1-TβR-I and ^125I-TGF-β1-TβR-II complexes, which were quantified with a PhosphoImager, are plotted against TGF-β1 concentrations (bottom).
(A, B, C, D, E, F) Cells were treated with LDL (50 μg protein/ml), VLDL (5 μg protein/ml), HDL (50 μg protein/ml), lipoprotein (a) (10 μg/ml), fluvastatin (F; 1 μM), lovastatin (L; 1 μM), nystatin (Nys; 25 μg/ml), β-CD (β-CD; 8 mM), cholest-4-en-3-one (3-one; 50 μg/ml) or cholesterol (Chol; 50 μg/ml) alone or combination of two. After 1 hr at 37° C. or 16 hr at 37° C. (for fluvastatin and lovastatin), ^125I-TGF-β1 affinity labeling of cell-surface TGF-β receptors was performed at 0° C. ^125I-TGF-β1 affinity-labeled TβR-I and TβR-II were analyzed by 7.5% SDS-PAGE and autoradiography. The relative intensities of TβR-I and TβR-II were quantified with a PhosphoImager. The ratio of ^125I-TGF-β1 binding to TβR-II and TβR-I were estimated. The numbers above the lane sequence denote the ratio of TβR-II/TβR-I.
(G) Mv1Lu cells were treated with 50 μg/ml of cholesterol and cholesterol analogs/derivatives including 25-hydroxycholesterol, 7-dehydrocholesterol (7-DHC), 7-ketocholesterol, 7β, 8β-epoxycholesterol, 7β-hydroxycholesterol, and oxidized 7-dehydrocholesterol (oxy-7DHC). After 1 hr at 37° C., ^125I-TGF-β1 affinity labeling of TGF-β receptors was performed. ^125I-TGF-β1 affinity-labeled TβR-I and TβR-II were analyzed by 7.5% SDS-PAGE and autoradiography. The bracket indicates the locations of ^125I-TGF-β1-affinity-labeled TβR-I and TβR-II. The relative intensities of ^125I-TGF-β1 affinity-labeled TβR-I and TβR-II were determined by a PhosphoImager. The ratios of ^125I-TGF-β1 binding to TβR-II and TβR-I were estimated. The numbers above the lane sequence denote the ratio of TβR-II/TβR-I.
After cross-linking, cell lysates were analyzed by 7.5% SDS-PAGE and autoradiography or quantified by a PhosphoImager. For all experiments, cholesterol or cholesterol derivatives were prepared as the stock solution with a concentration of 25 mg/ml in ethanol. The final concentration of ethanol in the medium was 0.2% (by vol.).

[1] = 50 μg/ml, 60-min or 120-min incubation (FIG. 3A)
[2] = 125 μg/ml in the presence of 0.2% β-CD

## C[C@@H]1[C@H](O)[C@@H](C)/C=C/C=C/CC/C=C/C=C/C=C/C=C/C(O[C@H]2O[C@H](C)[C@@H](O)[C@H](N)[C@@H]2O)CC2O[C@](O)(CC(O)C(O)CCC(O)CC(O)CC(O)CC(=O)O[C@H]1C)CC(O)C2C(=O)O (stereo partly drawn) [nystatin, reference compound]
PAI-1 expression; 25 μg/ml nystatin present, data not shown
  effect on the LDL and cholesterol suppression of PAI-1 expression: abolished
TβR-I and TβR-II; co-treatment, β-CD 8 mM, nystatin 25 μg/ml, cholest-4-en-3-one 50 μg/ml (FIG. 4B, C)
  effect on the LDL- or cholesterol-induced increase of 125I-TGF-β1 binding to TβR-I: abolished

## CC[C@H](C)C(=O)O[C@H]1C[C@@H](C)C=C2C=C[C@H](C)[C@H](CC[C@@H]3C[C@@H](O)CC(=O)O3)[C@H]21 [lovastatin, reference compound]
PAI-1 expression; 10 pM TGF-β1, Mv1Lu cells
  enhancement of PAI-1 expression: did not enhance
PAI-1 expression; 50 pM TGF-β1, Mv1Lu cells
  enhancement of PAI-1 expression: 3 fold
TβR-I and TβR-II; 1 μM, 37° C. 16 hr, Mv1Lu cells, 0.88 untreated
  ratio of TβR-II/TβR-I: 1.18

## CC(C)CCC[C@@H](C)[C@H]1CC[C@H]2[C@@H]3CC=C4C[C@@H](O)CC[C@]4(C)[C@H]3CC[C@]12C [cholesterol]
PAI-1 expression; 50 μg/ml, TGF-β1 2 to 100 pM, Mv1Lu cells
  suppression of TGF-β1-stimulated PAI-1 expression: 65-70%
TβR-I and TβR-II; [1]
  effect on 125I-TGF-β1 binding to TβR-II: did not affect
  increase of 125I-TGF-β1 binding to TβR-I: ~1.5 fold
TβR-I and TβR-II; 50 μg/ml, 60 min or 120 min, 0.37 without cholesterol
  ratio of TβR-II/TβR-I: 0.18
TβR-I and TβR-II; 50 μg/ml, 1 hr
  effect on the affinities of TGF-β1 binding to both TβR-I and TβR-II: does not alter
TβR-I and TβR-II; 50 μg/ml, 1 hr (FIG. 4G)
  relative potency in increasing binding to TβR-I and decreasing the ratio: the most potent of these compounds
TβR-I and TβR-II; 50 μg/ml, 1 hr, 125 pM 125I-TGF-β1 (FIG. 3F)
  increase of 125I-TGF-β1 binding to TβR-I: ~2 fold
TβR-I and TβR-II; 50 μg/ml, 1 hr, 125 pM 125I-TGF-β1, ~180 untreated
  125I-TGF-β1 binding to TβR-II, relative intensity: ~120 ×10^3 A.U.
TβR-I and TβR-II; 50 μg/ml, 1 hr, 125 pM 125I-TGF-β1, ~350 untreated
  125I-TGF-β1 binding to TβR-I, relative intensity: ~700 ×10^3 A.U.
TβR-I and TβR-II; 50 μg/ml, 1 hr, 0.62 untreated (FIG. 4G)
  ratio of TGF-β1 binding to TβR-II and TβR-I: 0.29
TβR-I and TβR-II; 50 μg/ml, 1 hr, Mv1Lu cells
  increase of 125I-TGF-β1 binding to TβR-I: ~2.5 fold
TβR-I and TβR-II; 50 μg/ml, 1 hr, Mv1Lu cells, 0.42 untreated
  ratio of TβR-II/TβR-I: 0.20
TβR-I and TβR-II; [2]
  effect on 125I-TGF-β1 binding to TβR-II: little effect
  increase of 125I-TGF-β1 binding to TβR-I: ~3 fold
TβR-I and TβR-II; CHO-K1, Mv1Lu and BAEC cells (FIGS. 4D, E and F)
  effect of exogenous cholesterol on the statin effect on the ratio: abolished
TβR-I and TβR-II; increasing concentrations, 1 hr, Mv1Lu cells
  effect on binding of 125I-TGF-β1 to TβR-II: did not significant alter
